From patent US5770732A, “Pyrrolinone-based peptidomimetics” (The Trustees of the University of Pennsylvania, priority 1994, dated 1998) come the findings set out here.

The target in this assay is T1, renin (Homo sapiens, UniProt P00797).
T1 sequence (P00797 67-406): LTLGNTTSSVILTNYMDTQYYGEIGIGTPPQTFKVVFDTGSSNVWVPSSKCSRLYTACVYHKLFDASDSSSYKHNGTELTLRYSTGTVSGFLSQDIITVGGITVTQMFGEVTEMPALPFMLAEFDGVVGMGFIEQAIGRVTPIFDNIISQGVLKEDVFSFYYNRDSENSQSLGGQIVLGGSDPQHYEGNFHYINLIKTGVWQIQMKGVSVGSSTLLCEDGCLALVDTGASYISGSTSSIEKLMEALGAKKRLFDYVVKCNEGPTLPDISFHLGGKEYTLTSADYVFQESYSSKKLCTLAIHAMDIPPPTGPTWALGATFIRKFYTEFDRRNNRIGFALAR
Kind of assay: Renin inhibition. The class given is biochemical.

Consider “[5(S)-prenyl-(5-benzyl)pyrrolin-4-one-3]-2(R)-isobutylacetate-[1-amino-1(S)-cyclohexylmethyl-2(R)3 3(S)-dihydroxy-5-methyl-hexane]-amide [Structure (10a)]”, for which the “concentration at which found to act as effective renin inhibitor” value amounted to 700 nM.
